Patent US8192962B2, “Processes for detecting toxic substances” (Daikin Industries, Ltd., priority 2001, dated 2012)

System: Detoxification protein genes
Experiment: DNA chip mRNA expression in yeast, detoxification protein genes (Table 8)
Format: cell-based, Saccharomyces cerevisiae S288C
Method in brief: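 S. cerevisiae S288C grown at 25° C. in YPD to log phase, then exposed 2 h to a toxicant at a growth-inhibiting, non-lethal concentration; untreated cells as control. Poly(A) mRNA reverse-transcribed with Cy3-dUTP or Cy5-dUTP, hybridized >12 h at 65° C. to whole-genome yeast DNA chip; value = fluorescence ratio treated/untreated.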

Na2As [(1)]
The level of expressed mRNA in the presence of chemical substance/The level of expressed mRNA in the absence of chemical substance (yeast gene YBL064C): 2.6 | The level of expressed mRNA in the presence of chemical substance/The level of expressed mRNA in the absence of chemical substance (yeast gene YBR008C): 3.0 | The level of expressed mRNA in the presence of chemical substance/The level of expressed mRNA in the absence of chemical substance (yeast gene YBR145W): 1.5 | The level of expressed mRNA in the presence of chemical substance/The level of expressed mRNA in the absence of chemical substance (yeast gene YBR244W): 0.6 | The level of expressed mRNA in the presence of chemical substance/The level of expressed mRNA in the absence of chemical substance (yeast gene YBR293W): 1.9 | The level of expressed mRNA in the presence of chemical substance/The level of expressed mRNA in the absence of chemical substance (yeast gene YCL035C): 2.0 | The level of expressed mRNA in the presence of chemical substance/The level of expressed mRNA in the absence of chemical substance (yeast gene YCL069W): 0.9 | The level of expressed mRNA in the presence of chemical substance/The level of expressed mRNA in the absence of chemical substance (yeast gene YCR083W): 1.1 | The level of expressed mRNA in the presence of chemical substance/The level of expressed mRNA in the absence of chemical substance (yeast gene YDL100C): 1.0 | The level of expressed mRNA in the presence of chemical substance/The level of expressed mRNA in the absence of chemical substance (yeast gene YDL168W): 2.3 | The level of expressed mRNA in the presence of chemical substance/The level of expressed mRNA in the absence of chemical substance (yeast gene YDR256C): 0.8 | The level of expressed mRNA in the presence of chemical substance/The level of expressed mRNA in the absence of chemical substance (yeast gene YDR453C): 1.1 | The level of expressed mRNA in the presence of chemical substance/The level of expressed mRNA in the absence of chemical substance (yeast gene YDR513W): 2.2 | The level of expressed mRNA in the presence of chemical substance/The level of expressed mRNA in the absence of chemical substance (yeast gene YDR538W): 0.9 | The level of expressed mRNA in the presence of chemical substance/The level of expressed mRNA in the absence of chemical substance (yeast gene YEL027W): 1.2 | The level of expressed mRNA in the presence of chemical substance/The level of expressed mRNA in the absence of chemical substance (yeast gene YEL065W): 0.3 | The level of expressed mRNA in the presence of chemical substance/The level of expressed mRNA in the absence of chemical substance (yeast gene YER185W): 2.0 | The level of expressed mRNA in the presence of chemical substance/The level of expressed mRNA in the absence of chemical substance (yeast gene YFL050C): 0.7 | The level of expressed mRNA in the presence of chemical substance/The level of expressed mRNA in the absence of chemical substance (yeast gene YGL013C): 0.9 | The level of expressed mRNA in the presence of chemical substance/The level of expressed mRNA in the absence of chemical substance (yeast gene YGL254W): 1.2 | The level of expressed mRNA in the presence of chemical substance/The level of expressed mRNA in the absence of chemical substance (yeast gene YGR088W): 1.3 | The level of expressed mRNA in the presence of chemical substance/The level of expressed mRNA in the absence of chemical substance (yeast gene YGR138C): 1.1 | The level of expressed mRNA in the presence of chemical substance/The level of expressed mRNA in the absence of chemical substance (yeast gene YGR197C): 1.1 | The level of expressed mRNA in the presence of chemical substance/The level of expressed mRNA in the absence of chemical substance (yeast gene YGR209C): 1.6 | The level of expressed mRNA in the presence of chemical substance/The level of expressed mRNA in the absence of chemical substance (yeast gene YGR224W): 0.9 | The level of expressed mRNA in the presence of chemical substance/The level of expressed mRNA in the absence of chemical substance (yeast gene YHL040C): 1.6 | The level of expressed mRNA in the presence of chemical substance/The level of expressed mRNA in the absence of chemical substance (yeast gene YHL047C): 0.6 | The level of expressed mRNA in the presence of chemical substance/The level of expressed mRNA in the absence of chemical substance (yeast gene YHR008C): 1.3 | The level of expressed mRNA in the presence of chemical substance/The level of expressed mRNA in the absence of chemical substance (yeast gene YHR048W): 2.5 | The level of expressed mRNA in the presence of chemical substance/The level of expressed mRNA in the absence of chemical substance (yeast gene YHR053C): 3.5 | The level of expressed mRNA in the presence of chemical substance/The level of expressed mRNA in the absence of chemical substance (yeast gene YHR055C): 4.4 | The level of expressed mRNA in the presence of chemical substance/The level of expressed mRNA in the absence of chemical substance (yeast gene YIR002C): 0.8 | The level of expressed mRNA in the presence of chemical substance/The level of expressed mRNA in the absence of chemical substance (yeast gene YIR038C): 1.3 | The level of expressed mRNA in the presence of chemical substance/The level of expressed mRNA in the absence of chemical substance (yeast gene YJL101C): 2.1 | The level of expressed mRNA in the presence of chemical substance/The level of expressed mRNA in the absence of chemical substance (yeast gene YJR104C): 1.4 | The level of expressed mRNA in the presence of chemical substance/The level of expressed mRNA in the absence of chemical substance (yeast gene YKL026C): 2.7 | The level of expressed mRNA in the presence of chemical substance/The level of expressed mRNA in the absence of chemical substance (yeast gene YKL064W): 0.6 | The level of expressed mRNA in the presence of chemical substance/The level of expressed mRNA in the absence of chemical substance (yeast gene YKR066C): 0.9 | The level of expressed mRNA in the presence of chemical substance/The level of expressed mRNA in the absence of chemical substance (yeast gene YKR105C): 0.8 | The level of expressed mRNA in the presence of chemical substance/The level of expressed mRNA in the absence of chemical substance (yeast gene YKR106W): 1.3 | The level of expressed mRNA in the presence of chemical substance/The level of expressed mRNA in the absence of chemical substance (yeast gene YLL028W): 0.6 | The level of expressed mRNA in the presence of chemical substance/The level of expressed mRNA in the absence of chemical substance (yeast gene YLL057C): 2.2 | The level of expressed mRNA in the presence of chemical substance/The level of expressed mRNA in the absence of chemical substance (yeast gene YLL060C): 12.5 | The level of expressed mRNA in the presence of chemical substance/The level of expressed mRNA in the absence of chemical substance (yeast gene YLR043C): 1.4 | The level of expressed mRNA in the presence of chemical substance/The level of expressed mRNA in the absence of chemical substance (yeast gene YLR046C): 0.7 | The level of expressed mRNA in the presence of chemical substance/The level of expressed mRNA in the absence of chemical substance (yeast gene YML028W): 1.0 | The level of expressed mRNA in the presence of chemical substance/The level of expressed mRNA in the absence of chemical substance (yeast gene YML116W): 4.1 | The level of expressed mRNA in the presence of chemical substance/The level of expressed mRNA in the absence of chemical substance (yeast gene YMR015C): 0.7 | The level of expressed mRNA in the presence of chemical substance/The level of expressed mRNA in the absence of chemical substance (yeast gene YMR038C): 1.9 | The level of expressed mRNA in the presence of chemical substance/The level of expressed mRNA in the absence of chemical substance (yeast gene YNL239W): 1.0 | The level of expressed mRNA in the presence of chemical substance/The level of expressed mRNA in the absence of chemical substance (yeast gene YNL241C): 1.3 | The level of expressed mRNA in the presence of chemical substance/The level of expressed mRNA in the absence of chemical substance (yeast gene YNL259C): 1.6 | The level of expressed mRNA in the presence of chemical substance/The level of expressed mRNA in the absence of chemical substance (yeast gene YOL158C): 0.7 | The level of expressed mRNA in the presence of chemical substance/The level of expressed mRNA in the absence of chemical substance (yeast gene YOR031W): 2.6 | The level of expressed mRNA in the presence of chemical substance/The level of expressed mRNA in the absence of chemical substance (yeast gene YOR153W): 1.6 | The level of expressed mRNA in the presence of chemical substance/The level of expressed mRNA in the absence of chemical substance (yeast gene YOR247W): 1.7 | The level of expressed mRNA in the presence of chemical substance/The level of expressed mRNA in the absence of chemical substance (yeast gene YOR251C): 1.1 | The level of expressed mRNA in the presence of chemical substance/The level of expressed mRNA in the absence of chemical substance (yeast gene YOR273C): 0.7 | The level of expressed mRNA in the presence of chemical substance/The level of expressed mRNA in the absence of chemical substance (yeast gene YPL163C): 0.6 | The level of expressed mRNA in the presence of chemical substance/The level of expressed mRNA in the absence of chemical substance (yeast gene YPR200C): 47.7
